Test results published in patent US20140243374A1, “Novel Sulfonamides” (The Brigham and Women's Hospital, Inc., priority 2011, published 2014).
Several values for one entry are separate records, joined by “and”; a condition that tells them apart may be missing. Equal entries are not always repeated. Structures can show the parent of a compound that is named as a salt.

What was measured:
[1] = molecular target: T1, γ-secretase (Notch cleavage activity) (Homo sapiens, UniProt P49768); assay: Cleaved Notch1 Sandwich ELISA (SUP-T1 cell line); assay type: cell-based; conditions: for IC50: SUP-T1 cells, 16 h; for Notch Elisa/Aβ42: ratio Notch Elisa IC50 to Aβ42 IC50
T1 construct: endogenous in cells; host or cells: SUP-T1 cells
Method: Cleaved Notch1 Sandwich ELISA.
This assay was used to determine if the compounds of interest inhibit the Notch cleavage activity of γ-secretase in SUP-T1 cell line, which endogenously expresses a truncated Notch receptor fragment that is a viable gamma-secretase substrate. The base medium for this cell line is ATCC-formulated RPMI-1640 Medium with fetal bovine serum to a final concentration of 10%. Prepare dilution of SUP-T1 cells in complete growth medium to 1.0×10^6 cells/mL, seed 1.5 mL per well of each cell dilution into a 6-well plate. Collect cells treated with serial diluted compounds in DMSO after 16 h, then using equal amount of protein isolated from samples to measure Notch intracellular cleavage by PathScan® Sandwich ELISA Kit (Cell Signaling Tech 7194S).

[2] = molecular target: T2, γ-secretase (cleavage of APP, Aβ42) (Homo sapiens, UniProt P49768); assay: Aβ (1-42) cellular assay (Aβ ELISA, HEK AP-GL-T1 6 cells); assay type: cell-based; conditions: for IC50: cellular Aβ42 ELISA, 24 h compound treatment; for inhibition at 1 µM: at 1 μM (concentration in brackets)
T2 construct: endogenous in cells; host or cells: HEK AP-GL-T16 luciferase reporter cells (tetracycline-induced APP substrate)
Method: Aβ (1-42) Cellular Assay.
The following assay was used to determine the extent to which the compounds of interest inhibit the cleavage of APP in vivo. AβELISA is a commercial fluorometric kit from Biosource (Invitrogen 89344). Luciferase reporter HEK AP-GL-T1 6 cells were plated at 50,000 cells/well in 96 well plates in DMEM media containing 10% tetracyclin free […], 250 μg/mL zeocin, 200 μg/mL hygromycin, and 5 μg/mL blasticidin. Compounds were added 24 h after plating and APP processing is induced simultaneously by addition of tetracycline. Following a 24 h compound treatment, […] of conditioned cell media is collected, mixed with ELISA diluent buffer containing 2 mM AEBSF and 12 mM o-phenanthroline, and immediately frozen at −80° C. For the ELISA, the samples were brought to room temperature and spun at 5000 rpm for 5 min. Samples ([…]) are incubated in the ELISA plate with […] detection antibody on a shaker at room temperature for 3 h. Wells were then washed 4 times with wash buffer and 100 mL of secondary antibody are added and incubated at room temperature for 30 min. Wells were again washed 4 times with wash buffer and 100 mL of fluorescent substrate solution are added. After 30 minutes of incubation, fluorescent signals are determine on a Gemini reader at ex 460 nm and em 560 nm. The amount of Aβ levels in each sample was determined from a standard curve generated by known concentrations of Aβ peptide run simultaneously with the samples.

Row | Molecule | IC50 [1] | Notch Elisa/Aβ42 [1] | IC50 [2] | also measured
1 | C[C@H](CO)NC(=O)c1ccc(CN(C2CCCCC2F)S(=O)(=O)c2ccc(Cl)cc2)cc1 (stereo partly drawn) [Example 60, 4-((4-Chloro-N-(2-fluorocyclohexyl)phenylsulfonamido)methyl)-N—((R)-1-hydroxypropan-2-yl)benzamide] | 1550 nM | 305 | 4.58 nM and 7 nM | 
2 | COC(=O)c1ccc(CN(C2CCCC(C(F)(F)F)C2)S(=O)(=O)c2ccc(Cl)cc2)cc1 (centres unmarked) [Example 49, Methyl 4-((4-chloro-N-(3-(trifluoromethyl)cyclohexyl)phenylsulfonamido)methyl)benzoate] |  |  | 7.3 nM | 
3 | O=C(O)c1ccc(CN(C2CCCCC2F)S(=O)(=O)c2ccc(Cl)nc2)cc1 (centres unmarked) [Example 62, 4-((6-Chloro-N-(2-fluorocyclohexyl)pyridine-3-sulfonamido)methyl)benzoic acid] | 5200 nM | 26 | 135 nM and 261 nM | 
4 | CCN(CCN1CCCC1)C(=O)c1ccc(CN(C2CCCCC2C)S(=O)(=O)c2ccc(Cl)cc2)cc1 (centres unmarked) [Example 39, 4-((4-Chloro-N-(2-methylcyclohexyl)phenylsulfonamido)methyl)-N-ethyl-N-(2-(pyrrolidin-1-yl)ethyl)benzamide] | 2260 nM | 38 | 40.7 nM and 77.4 nM | 
5 | O=C(O)c1ccc(CN(C2CCCC(C(F)(F)F)C2)S(=O)(=O)c2ccc(Cl)cc2)cc1 (single isomer, unassigned) [Example 52, 4-((4-Chloro-N-(3-(trifluoromethyl)cyclohexyl)phenylsulfonamido)methyl)benzoic acid] | 1880 nM |  | 47.6 nM | Notch Elisa/Aβ42 ([1]; listed as 52/1227C): 40
6 | C[C@H](CO)NC(=O)c1ccc(CN(C2CCCCC2F)S(=O)(=O)c2ccc(Cl)nc2)cc1 (stereo partly drawn) [Example 65, 4-((6-Chloro-N-(2-fluorocyclohexyl)pyridine-3-sulfonamido)methyl)-N—((R)-1-hydroxypropan-2-yl)benzamide] | 1150 nM | 84 | 13.7 nM | 
7 | COC(=O)c1cc(CN(C2CCOCC2)S(=O)(=O)c2ccc(Cl)cc2)ccc1OC [Example 7, Methyl 5-((4-chloro-N-(tetrahydro-2H-pyran-4-yl)phenylsulfonamido)methyl)-2-methoxybenzoate] |  |  |  | inhibition at 1 µM ([2]; read-out: Aβ42 % Inh): 0%
8 | CC1CCCCC1N(Cc1ccc(C(=O)NCCN(C)C)cc1)S(=O)(=O)c1ccc(Cl)cc1 (centres unmarked) [Example 41, 4-((4-Chloro-N-(2-methylcyclohexyl)phenylsulfonamido)methyl)-N-(2-(dimethylamino)ethyl)benzamide hydrochloride] | 675 nM and 850 nM | 91 | 5.8 nM and 10.9 nM | 
9 | O=C(O)c1ccc(CN(C2CCC(F)CC2)S(=O)(=O)c2ccc(Cl)cc2)cc1 (centres unmarked) [Example 82, 4-((4-Chloro-N-(4-fluorocyclohexyl)phenylsulfonamido)methyl)benzoic acid] |  |  |  | inhibition at 30 µM ([2]; at 30 μM (concentration in brackets), read-out: Aβ42 % Inh): 0%
10 | CC1CCCC(N(Cc2ccc(C(=O)O)cc2)S(=O)(=O)c2ccc(Cl)cc2)C1 (centres unmarked) [Example 43, 4-((4-Chloro-N-(3-methylcyclohexyl)phenylsulfonamido)methyl)benzoic acid] | 2820 nM and 2730 nM | 19 | 148 nM | 
11 | COC(=O)c1ccc(CN(C2CCCCC2F)S(=O)(=O)c2ccc(Cl)nc2)cc1 (centres unmarked) [Example 61, Methyl 4-((6-chloro-N-(2-fluorocyclohexyl)pyridine-3-sulfonamido)methyl)benzoate] |  |  | 10.4 nM | 
12 | CN(C)CCNC(=O)c1ccc(CN(C2CCCCC2F)S(=O)(=O)c2ccc(Cl)nc2)cc1 (centres unmarked) [Example 80, 4-((6-Chloro-N-(2-fluorocyclohexyl)pyridine-3-sulfonamido)methyl)-N-(2-(dimethylamino)ethyl)benzamide hydrochloride] |  |  |  | inhibition at 1 µM ([2]; read-out: Aβ42 % Inh): 65%
13 | COC(=O)c1ccc(CN(C2CCCCC2F)S(=O)(=O)c2ccc(Cl)cc2)cc1 (centres unmarked) [Example 56, Methyl 4-((4-chloro-N-(2-fluorocyclohexyl)phenylsulfonamido)methyl)benzoate] |  |  | 4.05 nM | 
14 | COC(=O)c1ccc(CN(C2CCOCC2)S(=O)(=O)c2ccc(Cl)cc2)cc1 [Example 12, Methyl 4-((4-chloro-N-(tetrahydro-2H-pyran-4-yl)phenylsulfonamido)methyl)-benzoate] |  |  |  | inhibition at 1 µM ([2]; read-out: Aβ42 % Inh): 0%
15 | O=C(O)c1ccc(CN(C2CCCC(C(F)(F)F)C2)S(=O)(=O)c2ccc(Cl)nc2)cc1 (centres unmarked) [Example 63, 4-((6-Chloro-N-(3-(trifluoromethyl)cyclohexyl)pyridine-3-sulfonamido)methyl)benzoic acid] |  |  |  | inhibition at 1 µM ([2]; read-out: Aβ42 % Inh): 87%
16 | Methyl 3-(4-((4-chloro-N-(2-methylcyclohexyl)phenylsulfonamido)methyl)benzamido)propanoate [Example 35] |  |  | 29.7 nM | 
17 | COC(=O)c1ccc(CN(C2CCCC(C)C2)S(=O)(=O)c2ccc(Cl)cc2)cc1 (centres unmarked) [Example 42, Methyl 4-((4-chloro-N-(3-methylcyclohexyl)phenylsulfonamido)methyl)benzoate] |  |  | 9.44 nM | 

Further lines, with some results ahead:

Row | IC50 [1] | Notch Elisa/Aβ42 [1] | IC50 [2] | Molecule | also measured
18 | 5060 nM | 56 | 89.9 nM | O=C(O)c1ccc(CN(C2CCCCC2(F)F)S(=O)(=O)c2ccc(Cl)cc2)cc1 (centres unmarked) [Example 76, 4-((4-Chloro-N-(2,2-difluorocyclohexyl)phenylsulfonamido)methyl)benzoic acid] | 
19 |  |  | 103 nM | COC[C@H](C)NC(=O)c1ccc(CN(C2CCCCC2F)S(=O)(=O)c2ccc(Cl)cc2)cc1 (stereo partly drawn) [Example 86, 4-((4-Chloro-N-(2-fluorocyclohexyl)phenylsulfonamido)methyl)-N—((S)-1-methoxypropan-2-yl)benzamide] | 
20 |  |  | 26.8 nM | COC(=O)c1ccc(CN(C2CCCC(C(F)(F)F)C2)S(=O)(=O)c2ccc(Cl)nc2)cc1 (centres unmarked) [Example 70, Methyl 4-((6-chloro-N-(3-(trifluoromethyl)cyclohexyl)pyridine-3-sulfonamido)methyl)benzoate] | 
21 | 1100 nM | 106 | 10.4 nM | C[C@H](O)CNC(=O)c1ccc(CN(C2CCCCC2F)S(=O)(=O)c2ccc(Cl)cc2)cc1 (stereo partly drawn) [Example 73, 4-((4-Chloro-N-(2-fluorocyclohexyl)phenylsulfonamido)methyl)-N—((S)-2-hydroxypropyl)benzamide] | 
22 |  |  | 141 nM | O=C(O)c1ccc(CN([C@@H]2CCCC[C@H]2F)S(=O)(=O)c2ccc(Cl)cc2)cc1 [Example 84, 4-((4-Chloro-N-((1R,2R)-2-fluorocyclohexyl)phenylsulfonamido)methyl)benzoic acid] | 
23 | 1380 nM | 134 | 10.3 nM | O=C(NCCO)c1ccc(CN(C2CCCCC2F)S(=O)(=O)c2ccc(Cl)cc2)cc1 (centres unmarked) [Example 66, 4-((4-Chloro-N-(2-fluorocyclohexyl)phenylsulfonamido)methyl)-N-(2-hydroxyethyl)benzamide] | 
24 | 879 nM | 63 | 14 nM | CC1CCCCC1N(Cc1ccc(C#N)cc1)S(=O)(=O)c1ccc(Cl)cc1 (centres unmarked) [Example 78, 4-Chloro-N-(4-cyanobenzyl)-N-(2-methylcyclohexyl)benzenesulfonamide] | 
25 | 830 nM | 33 | 25.5 nM | O=C(O)c1ccc(CN(C2CCCCC2C(F)(F)F)S(=O)(=O)c2ccc(Cl)cc2)cc1 (centres unmarked) [Example 68, 4-((4-Chloro-N-(2-(trifluoromethyl)cyclohexyl)phenylsulfonamido)methyl)benzoic acid] | 
26 |  |  | 3620 nM | O=C(O)CNC(=O)c1ccc(CN(C2CCCCC2F)S(=O)(=O)c2ccc(Cl)cc2)cc1 (centres unmarked) [Example 79, 2-(4-((4-Chloro-N-(2-fluorocyclohexyl)phenylsulfonamido)methyl)benzamido)acetic acid] | 
27 |  |  | 35.4 nM | C[C@@H](CO)NC(=O)c1ccc(CN(C2CCCCC2F)S(=O)(=O)c2ccc(Cl)cc2)cc1 (stereo partly drawn) [Example 89, 4-((4-Chloro-N-(2-fluorocyclohexyl)phenylsulfonamido)methyl)-N—((S)-1-hydroxypropan-2-yl)benzamide] | 
28 |  |  | 6.91 nM | O=C(NCCN1CCCC1)c1ccc(CN(C2CCCCC2F)S(=O)(=O)c2ccc(Cl)cc2)cc1 (centres unmarked) [Example 87, 4-((4-Chloro-N-(2-fluorocyclohexyl)phenylsulfonamido)methyl)-N-(2-(pyrrolidin-1-yl)ethyl)benzamide] | 
29 |  |  | 7.31 nM | COC[C@@H](C)NC(=O)c1ccc(CN(C2CCCCC2F)S(=O)(=O)c2ccc(Cl)cc2)cc1 (stereo partly drawn) [Example 88, 4-((4-Chloro-N-(2-fluorocyclohexyl)phenylsulfonamido)methyl)-N-((R)-1-methoxypropan-2-yl)benzamide] | 
